What all share (format): functional
For assay [1], the system named is Staphylococcus aureus. The assay can be described thus: Antibacterial activity against methicillin-susceptible Staphylococcus aureus Smith.
For assay [2], the system named is Staphylococcus aureus. The assay can be described thus: Antibacterial activity against methicillin-resistant Staphylococcus aureus KMP9.
The next assay has as its system Enterococcus faecium. The assay can be described thus: Antibacterial activity against vancomycin-resistant Enterococcus faecium KU1778.
Assay [3] deals with Streptococcus pneumoniae. The assay can be described thus: Antibacterial activity against penicillin-susceptible Streptococcus pneumoniae ATCC 49619.
Assay [4] concerns Streptococcus pneumoniae. The assay can be described thus: Antibacterial activity against penicillin-resistant Streptococcus pneumoniae KT2524.
The subject of a further assay is Streptococcus pyogenes. The assay can be described thus: Antibacterial activity against Streptococcus pyogenes ATCC 12344.
Another assay concerns Moraxella catarrhalis. The assay can be described thus: Antibacterial activity against Moraxella catarrhalis K1209.
A further assay relates to Haemophilus influenzae. The assay can be described thus: Antibacterial activity against Haemophilus influenzae TH13.
Assay [5] relates to Staphylococcus aureus. The assay can be described thus: Antibacterial activity against methicillin-susceptible Staphylococcus aureus Smith infected iv dosed mouse 1 hr after inoculation.

In brackets after ≈: the same amount, converted by molar mass.

As for `C=C[C@]1(C)C[C@@H](OC(=O)CSC2CCN(C(=O)CCn3cnc4c(N5CCC(N)C5)ncnc43)CC2)[C@]2(C)[C@H](C)CC[C@]3(CCC(=O)[C@@H]32)[C@@H](C)[C@@H]1O` (stereo not given in full), the MIC with Staphylococcus aureus [1] was determined as 0.063 µg/mL (≈ 0.0856 µM); in the assay on Staphylococcus aureus [2], 0.125 µg/mL (≈ 0.17 µM); against Enterococcus faecium it was 0.032 µg/mL (≈ 0.0435 µM); against Streptococcus pneumoniae [3] it was 0.016 µg/mL (≈ 0.0217 µM); with Streptococcus pneumoniae [4] it was 0.032 µg/mL (≈ 0.0435 µM); in the assay with Streptococcus pyogenes, 0.016 µg/mL (≈ 0.0217 µM). For the same compound, the MIC with Moraxella catarrhalis was 0.032 µg/mL (≈ 0.0435 µM); in the assay on Haemophilus influenzae it was 1 µg/mL (≈ 1.36 µM).

What is called ED50 is the dose that gives a 50% effect, or the effect in half of the subjects. A higher ED50 goes with a need for a large dose. In the case of `C=C[C@]1(C)C[C@@H](OC(=O)CSC2CCN(C(=O)CCn3cnc4c(N5CCC(N(C)C)CC5)nc(N)nc43)CC2)[C@]2(C)[C@H](C)CC[C@]3(CCC(=O)[C@@H]32)[C@@H](C)[C@@H]1O`, the MIC stood at 0.25 µg/mL (≈ 0.315 µM) against Staphylococcus aureus [1]; 0.25 µg/mL (≈ 0.315 µM) against Staphylococcus aureus [2]; 0.125 µg/mL (≈ 0.158 µM) against Enterococcus faecium; 0.063 µg/mL (≈ 0.0794 µM) with Streptococcus pneumoniae [3]; 0.063 µg/mL (≈ 0.0794 µM) against Streptococcus pneumoniae [4]; 0.032 µg/mL (≈ 0.0403 µM) against Streptococcus pyogenes. In addition, the MIC against Moraxella catarrhalis came to 0.063 µg/mL (≈ 0.0794 µM); in the assay with Haemophilus influenzae, 2 µg/mL (≈ 2.52 µM). Moreover, in the assay on Staphylococcus aureus [5], the ED50 came out at 1.72 mg/kg.

With `C=C[C@]1(C)C[C@@H](OC(=O)CSC2CCN(C(=O)CCn3cnc4c(N5CCC(NC)C5)nc(N)nc43)CC2)[C@]2(C)[C@H](C)CC[C@]3(CCC(=O)[C@@H]32)[C@@H](C)[C@@H]1O` (stereo not given in full), the MIC against Staphylococcus aureus [1] amounted to 0.25 µg/mL (≈ 0.327 µM); with Staphylococcus aureus [2], 1 µg/mL (≈ 1.31 µM); in the assay on Enterococcus faecium, 0.25 µg/mL (≈ 0.327 µM); in the assay with Streptococcus pneumoniae [3], 0.063 µg/mL (≈ 0.0823 µM); in the assay on Streptococcus pneumoniae [4] it was 0.063 µg/mL (≈ 0.0823 µM); in the assay with Streptococcus pyogenes, 0.032 µg/mL (≈ 0.0418 µM). For the same compound, the results for the MIC in the assay with Moraxella catarrhalis and in the assay with Haemophilus influenzae were 0.125 µg/mL (≈ 0.163 µM) and 1 µg/mL (≈ 1.31 µM), respectively. In the assay on Staphylococcus aureus [5], this compound displayed a 50% effective dose (ED50) of 1.72 mg/kg.

`C=C[C@]1(C)C[C@@H](OC(=O)CSC2CCN(C(=O)CCn3cnc4c(N5CCC(NC)C5)ncnc43)CC2)[C@]2(C)[C@H](C)CC[C@]3(CCC(=O)[C@@H]32)[C@@H](C)[C@@H]1O` (stereo not given in full): the MIC in the assay on Staphylococcus aureus [1] came to 0.063 µg/mL (≈ 0.084 µM); against Staphylococcus aureus [2], 0.25 µg/mL (≈ 0.333 µM); against Enterococcus faecium, 0.032 µg/mL (≈ 0.0427 µM); in the assay with Streptococcus pneumoniae [3], 0.016 µg/mL (≈ 0.0213 µM); against Streptococcus pneumoniae [4] it was 0.032 µg/mL (≈ 0.0427 µM); with Streptococcus pyogenes it was 0.016 µg/mL (≈ 0.0213 µM). The figures for the MIC in the assay on Moraxella catarrhalis and with Haemophilus influenzae were 0.063 µg/mL (≈ 0.084 µM) and 2 µg/mL (≈ 2.67 µM), respectively. Further, the ED50 with Staphylococcus aureus [5] turned out to be 1.61 mg/kg.

Turning to `C=C[C@]1(C)C[C@@H](OC(=O)CSC2CCN(C(=O)CCn3cnc4c(N5CCC(NC)CC5)nc(N)nc43)CC2)[C@]2(C)[C@H](C)CC[C@]3(CCC(=O)[C@@H]32)[C@@H](C)[C@@H]1O`, the MIC in the assay on Staphylococcus aureus [1] worked out at 0.5 µg/mL (≈ 0.642 µM); in the assay on Staphylococcus aureus [2], 2 µg/mL (≈ 2.57 µM); against Enterococcus faecium it was 0.5 µg/mL (≈ 0.642 µM); in the assay on Streptococcus pneumoniae [3], 0.125 µg/mL (≈ 0.16 µM); with Streptococcus pneumoniae [4] it was 0.25 µg/mL (≈ 0.321 µM); with Streptococcus pyogenes, 0.063 µg/mL (≈ 0.0809 µM). Also, the MIC was determined as 0.25 µg/mL (≈ 0.321 µM) in the assay with Moraxella catarrhalis and 2 µg/mL (≈ 2.57 µM) in the assay on Haemophilus influenzae. The same compound gave an ED50 with Staphylococcus aureus [5] of 1.41 mg/kg.

Consider `C=C[C@]1(C)C[C@@H](OC(=O)CSC2CCN(C(=O)CCn3cnc4c(N5CCC(CNC)C5)nc(N)nc43)CC2)[C@]2(C)[C@H](C)CC[C@]3(CCC(=O)[C@@H]32)[C@@H](C)[C@@H]1O` (stereo not given in full), for which the MIC stood at 0.5 µg/mL (≈ 0.642 µM) in the assay with Staphylococcus aureus [1]; 4 µg/mL (≈ 5.13 µM) in the assay with Staphylococcus aureus [2]; 0.5 µg/mL (≈ 0.642 µM) with Enterococcus faecium; 0.125 µg/mL (≈ 0.16 µM) against Streptococcus pneumoniae [3]; 0.25 µg/mL (≈ 0.321 µM) in the assay on Streptococcus pneumoniae [4]; 0.032 µg/mL (≈ 0.0411 µM) in the assay with Streptococcus pyogenes. Also, the MIC in the assay on Moraxella catarrhalis is 0.25 µg/mL (≈ 0.321 µM); in the assay on Haemophilus influenzae, 4 µg/mL (≈ 5.13 µM). The compound further showed an ED50 in the assay with Staphylococcus aureus [5] of 1.01 mg/kg.

On to `C=C[C@]1(C)C[C@@H](OC(=O)CSC2CCN(C(=O)CCn3cnc4c(N5CC(N)C5)nc(N)nc43)CC2)[C@]2(C)[C@H](C)CC[C@]3(CCC(=O)[C@@H]32)[C@@H](C)[C@@H]1O`, for which the MIC is 0.5 µg/mL (≈ 0.678 µM) in the assay on Staphylococcus aureus [1]; 1 µg/mL (≈ 1.36 µM) in the assay with Staphylococcus aureus [2]; 0.25 µg/mL (≈ 0.339 µM) with Enterococcus faecium; 0.063 µg/mL (≈ 0.0855 µM) against Streptococcus pneumoniae [3]; 0.125 µg/mL (≈ 0.17 µM) with Streptococcus pneumoniae [4]; 0.063 µg/mL (≈ 0.0855 µM) in the assay with Streptococcus pyogenes. The MIC against Moraxella catarrhalis came to 0.25 µg/mL (≈ 0.339 µM); in the assay on Haemophilus influenzae, 1 µg/mL (≈ 1.36 µM). In addition, the 50% effect level in the assay on Staphylococcus aureus [5] (ED50) was put at a dose of 3.04 mg/kg.

For `C=C[C@]1(C)C[C@@H](OC(=O)CSC2CCN(C(=O)CCn3cnc4c(N5CCC(CN)C5)ncnc43)CC2)[C@]2(C)[C@H](C)CC[C@]3(CCC(=O)[C@@H]32)[C@@H](C)[C@@H]1O` (stereo not given in full), the MIC stood at 0.125 µg/mL (≈ 0.167 µM) in the assay on Staphylococcus aureus [1]; 0.5 µg/mL (≈ 0.667 µM) against Staphylococcus aureus [2]; 0.125 µg/mL (≈ 0.167 µM) against Enterococcus faecium; 0.016 µg/mL (≈ 0.0213 µM) in the assay with Streptococcus pneumoniae [3]; 0.032 µg/mL (≈ 0.0427 µM) against Streptococcus pneumoniae [4]; 0.008 µg/mL (≈ 0.0107 µM) with Streptococcus pyogenes. In addition, the results for the MIC with Moraxella catarrhalis and against Haemophilus influenzae were 0.063 µg/mL (≈ 0.084 µM) and 1 µg/mL (≈ 1.33 µM), respectively. This compound displayed an ED50 in the assay with Staphylococcus aureus [5] of 0.59 mg/kg.

In the case of `C=C[C@]1(C)C[C@@H](OC(=O)CSC2CCN(C(=O)CCn3cnc4c(N5CCC(N)C5)nc(N)nc43)CC2)[C@]2(C)[C@H](C)CC[C@]3(CCC(=O)[C@@H]32)[C@@H](C)[C@@H]1O` (stereo not given in full), the MIC with Staphylococcus aureus [1] came out at 0.5 µg/mL (≈ 0.666 µM); in the assay on Staphylococcus aureus [2] it was 1 µg/mL (≈ 1.33 µM); in the assay with Enterococcus faecium, 0.125 µg/mL (≈ 0.166 µM); in the assay with Streptococcus pneumoniae [3], 0.125 µg/mL (≈ 0.166 µM); in the assay on Streptococcus pneumoniae [4], 0.125 µg/mL (≈ 0.166 µM); in the assay on Streptococcus pyogenes, 0.063 µg/mL (≈ 0.0839 µM). The figures for the MIC in the assay with Moraxella catarrhalis and against Haemophilus influenzae were 0.25 µg/mL (≈ 0.333 µM) and 1 µg/mL (≈ 1.33 µM), respectively. Further, in the assay with Staphylococcus aureus [5], the 50% effect level (ED50) was put at a dose of 3.05 mg/kg.

Source of the values: ChEMBL document CHEMBL1145592, “Pleuromutilin derivatives having a purine ring. Part 1: new compounds with promising antibacterial activity against resistant Gram-positive pathogens” (2008).
